In ChEMBL document CHEMBL1201862, “PubChem BioAssay data set” (2004):
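In this assay, cells in 96-well plates receive the compound at five concentrations for 48 hours. Endpoints are linearly interpolated between the surrounding concentrations. At the GI50, growth is halved.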 The source made the active and inactive calls. Cut-off read from the data, not from the text of the source: active = GI50 up to about 1.1 µM and inactive = higher.

Legend:
Experiment in all cases: DTP human tumour cell line panel, 48 h
M14 = system: M14
UACC-62 = system: UACC-62
HL-60 = system: HL-60
ACHN = system: ACHN
NCI/ADR-RES = system: NCI/ADR-RES
SK-OV-3 = system: SK-OV-3
MDA-MB-435 = system: MDA-MB-435
T47D = system: T47D
LOX IMVI = system: LOX IMVI
HCT-15 = system: HCT-15
OVCAR-8 = system: OVCAR-8
PC-3 = system: PC-3
SF-539 = system: SF-539
SW-620 = system: SW-620
A498 = system: A498
HOP-92 = system: HOP-92
NCI-H460 = system: NCI-H460
NCI-H522 = system: NCI-H522
OVCAR-4 = system: OVCAR-4
SK-MEL-28 = system: SK-MEL-28

Compound	GI50 (M14)	GI50 (UACC-62)	GI50 (HL-60)	GI50 (ACHN)	GI50 (NCI/ADR-RES)	GI50 (SK-OV-3)	GI50 (MDA-MB-435)	GI50 (T47D)	GI50 (LOX IMVI)	GI50 (HCT-15)	GI50 (OVCAR-8)	GI50 (PC-3)	GI50 (SF-539)	GI50 (SW-620)	GI50 (A498)	GI50 (HOP-92)	GI50 (NCI-H460)	GI50 (NCI-H522)	GI50 (OVCAR-4)	GI50 (SK-MEL-28)
CNC(=O)C1OC(n2cnc3c(NCc4cccc(I)c4)nc(Cl)nc32)C(O)C1O (stereo not drawn)	10.3 µM (inactive)	10.1 µM (inactive)	15.3 µM (inactive)	11.8 µM (inactive)	11.7 µM (inactive)	17.2 µM (inactive)	11.3 µM (inactive)	15.6 µM (inactive)	6.18 µM (inactive)	1.06 µM	13.8 µM (inactive)	11.9 µM (inactive)	11 µM (inactive)	14.9 µM (inactive)	13.8 µM (inactive)	–	–	–	–	–
COc1cc2c(cc1OC)CN1CCCc3cc(OC)c(OC)cc3C1C2 (stereo not drawn)	40.6 µM (inactive)	29.6 µM (inactive)	–	34.1 µM (inactive)	> 100 µM (inactive)	63.4 µM (inactive)	18.1 µM (inactive)	22.9 µM (inactive)	25.4 µM (inactive)	41.6 µM	57.7 µM (inactive)	39.8 µM (inactive)	24.3 µM (inactive)	30.5 µM (inactive)	–	21.4 µM (inactive)	31.4 µM (inactive)	29.4 µM (inactive)	62.4 µM (inactive)	32 µM (inactive)
COC(=O)[C@H](C)[C@@H]1CC[C@](C)(CCC2=C(C)CCCC2(C)C)OO1	> 25 µM (inactive)	> 25 µM (inactive)	12 µM (inactive)	> 25 µM (inactive)	> 25 µM (inactive)	> 25 µM (inactive)	> 25 µM (inactive)	> 25 µM (inactive)	8.02 µM (inactive)	> 25 µM	> 25 µM (inactive)	> 25 µM (inactive)	> 25 µM (inactive)	> 25 µM (inactive)	–	> 25 µM (inactive)	> 25 µM (inactive)	16.1 µM (inactive)	> 25 µM (inactive)	> 25 µM (inactive)
CC12Cc3cc4c(cc3C1(c1ccc([N+](=O)[O-])cc1)OCCO2)OCO4 (stereo not drawn)	> 100 µM (inactive)	36.8 µM (inactive)	> 100 µM (inactive)	28 µM (inactive)	95.5 µM (inactive)	16.8 µM (inactive)	> 100 µM (inactive)	> 100 µM (inactive)	> 100 µM (inactive)	44.2 µM	22.4 µM (inactive)	97.7 µM (inactive)	28 µM (inactive)	> 100 µM (inactive)	> 100 µM (inactive)	–	70.3 µM (inactive)	91 µM (inactive)	> 100 µM (inactive)	> 100 µM (inactive)
CC(=O)OCCC[C@@H]1C(=C(C)C)CCC2[C@@]1(C)CC[C@@]1(C)C[C@](C)(CCC=C(C)C)CC[C@]21C (stereo partly drawn)	> 100 µM (inactive)	> 100 µM (inactive)	> 100 µM (inactive)	> 100 µM (inactive)	> 100 µM (inactive)	> 100 µM (inactive)	> 100 µM (inactive)	> 100 µM (inactive)	–	> 100 µM	> 100 µM (inactive)	18.5 µM (inactive)	> 100 µM (inactive)	> 100 µM (inactive)	> 100 µM (inactive)	–	> 100 µM (inactive)	> 100 µM (inactive)	> 100 µM (inactive)	> 100 µM (inactive)
FC1(F)SC2CCCCCCCCCCC2C1(F)F (stereo not drawn)	39.7 µM (inactive)	33.9 µM (inactive)	15.4 µM (inactive)	25.3 µM (inactive)	63.4 µM (inactive)	61.7 µM (inactive)	28.3 µM (inactive)	30.9 µM (inactive)	16.4 µM (inactive)	42.5 µM	40.9 µM (inactive)	42.6 µM (inactive)	–	–	–	19.1 µM (inactive)	–	21.8 µM (inactive)	22.1 µM (inactive)	18.5 µM (inactive)
COc1cc(/C=C/C(=O)CC(=O)/C=C/c2cc(OC)c(O)c(OC)c2)cc(OC)c1O	8.61 µM (inactive)	4.22 µM (inactive)	16.3 µM (inactive)	9.31 µM (inactive)	> 25 µM (inactive)	7.94 µM (inactive)	6.17 µM (inactive)	6.5 µM (inactive)	7.82 µM (inactive)	> 25 µM	10.4 µM (inactive)	10.4 µM (inactive)	8.77 µM (inactive)	> 25 µM (inactive)	4.93 µM (inactive)	–	22.8 µM (inactive)	5.81 µM (inactive)	23.7 µM (inactive)	5.71 µM (inactive)
Cc1cc2nn(C3CCCO3)nc2cc1C (stereo not drawn)	> 100 µM (inactive)	> 100 µM (inactive)	–	–	> 100 µM (inactive)	> 100 µM (inactive)	> 100 µM (inactive)	> 100 µM (inactive)	–	> 100 µM	> 100 µM (inactive)	> 100 µM (inactive)	> 100 µM (inactive)	–	> 100 µM (inactive)	–	> 100 µM (inactive)	> 100 µM (inactive)	> 100 µM (inactive)	–
O=C(N/N=C1\CCc2ccccc21)N/N=C1\CCc2ccccc21	13.5 µM (inactive)	> 100 µM (inactive)	> 100 µM (inactive)	> 100 µM (inactive)	> 100 µM (inactive)	> 100 µM (inactive)	> 100 µM (inactive)	> 100 µM (inactive)	> 100 µM (inactive)	> 100 µM	> 100 µM (inactive)	> 100 µM (inactive)	> 100 µM (inactive)	> 100 µM (inactive)	> 100 µM (inactive)	–	> 100 µM (inactive)	> 100 µM (inactive)	–	> 100 µM (inactive)
CN(Cc1cnc2nc(N)nc(N)c2n1)c1ccc(C(=O)NC23CC4CC(CC(C4)C2)C3)cc1	4.14 µM (inactive)	3.66 µM (inactive)	12.2 µM (inactive)	3.13 µM (inactive)	42.8 µM (inactive)	15.2 µM (inactive)	10.5 µM (inactive)	15.9 µM (inactive)	5.48 µM (inactive)	4.71 µM	7.35 µM (inactive)	4.58 µM (inactive)	–	7.33 µM (inactive)	53.6 µM (inactive)	–	5.96 µM (inactive)	–	–	–
C/C(=C\CSCC(N)C(=O)O)CC/C=C(\C)CNc1ccccc1 (stereo not drawn)	> 100 µM (inactive)	> 100 µM (inactive)	> 100 µM (inactive)	> 100 µM (inactive)	> 100 µM (inactive)	> 100 µM (inactive)	> 100 µM (inactive)	> 100 µM (inactive)	> 100 µM (inactive)	> 100 µM	> 100 µM (inactive)	> 100 µM (inactive)	> 100 µM (inactive)	> 100 µM (inactive)	–	–	> 100 µM (inactive)	49 µM (inactive)	> 100 µM (inactive)	> 100 µM (inactive)
COC(=O)[C@@]12CN(C)[C@@H](C(C)(C)C)N1C(=O)OC2c1ccccc1 (stereo partly drawn)	> 100 µM (inactive)	> 100 µM (inactive)	> 100 µM (inactive)	> 100 µM (inactive)	> 100 µM (inactive)	> 100 µM (inactive)	> 100 µM (inactive)	> 100 µM (inactive)	> 100 µM (inactive)	> 100 µM	> 100 µM (inactive)	> 100 µM (inactive)	> 100 µM (inactive)	> 100 µM (inactive)	–	> 100 µM (inactive)	> 100 µM (inactive)	> 100 µM (inactive)	> 100 µM (inactive)	> 100 µM (inactive)
